From patent US10894817B2, “Fatty acid modified urocortin-2 analogs for the treatment of diabetes and chronic kidney disease” (priority 2016, dated 2021)
Read-outs that look alike come from different tables or passages of the source. Starred links: 1 amine or outer side, 2 acyl side, 3 side chain; linkers in the order of their positions; H or OH if unused. Non-standard residues stand in square brackets, D forms with d. Residues, ends and D or L forms follow the SMILES beside them. Groups on a side chain read outwards from the residue. *: point of attachment. C20 diacid = O=C(O)CCCCCCCCCCCCCCCCCCC(=O)*; γGlu = O=C(O)[C@H](CCC(=O)[*:2])N[*:1]; NMeI = CC[C@H](C)[C@H](NC)C(=O)O; AEEA = NCCOCCOCC(=O)O

What was measured:
[1] = cynomolgus monkey, in vivo, sc, 96.4 nmol/kg
Method: (§1) Plasma concentrations of compounds were determined by LC/MS methods. Each method measured the intact compound; peptide plus linked time extension. For each assay, the compound and an analog, used as an internal standard (IS), were extracted from 100% mouse, rat or monkey plasma (25 μl) using acetonitrile. Two distinct layers were formed upon centrifugation with the compound and the IS located in the supernatant layer. An aliquot of the supernatant (80 μl) was transferred to a Thermo Protein Precipitation Plate with water (150 μl) and formic acid (25 μl) followed by mixing. A final 31% acetonitrile in 10% formic acid sample (10 μl) was loaded onto a Supelco Analytical Discovery BIO Wide Pore C5-3 column (5 cm×1 mm, 3 μm). The column effluent was directed into a Thermo Q-Exactive mass spectrometer for detection and quantitation.
Male Cynomolgus monkeys were administered a single subcutaneous dose or intravenous dose (96.4 nmol/kg) of a compound described herein in 20 mM Tris-HCl Buffer (pH 7) at a volume of 1 mL/kg. Blood was collected from each animal at 2, 6, 24, 48, 72, 96, 168, 240, 336, 408, and 504 hours postdose for pharmacokinetic characterization.
Male Cynomolgus monkeys were also administered a single subcutaneous dose (50 nmol/kg) of a compound described herein in 20 mM Tris-HCl Buffer (pH 8) at a volume of 0.26 mL/kg. Blood was collected from each animal at 3, 6, 12, 24, 48, 72, 96, 120, 168, 192, 240, 336, 408, and 504 hours postdose for pharmacokinetic characterization.

[2] = rat, in vivo, sc, 150 nmol/kg
Method: as §1
(§2) Male Sprague Dawley rats were administered a single subcutaneous dose (50 or 150 nmol/kg) of a compound described herein in 20 mM Tris-HCl Tris Buffer (pH 8) at a volume of 0.26 or 0.77 mL/kg.

[3] = mouse, in vivo, sc, 386 nmol/kg
Method: as §1
(§3) Male CD-1 mice were administered a single subcutaneous dose (350, 386 or 388 nmol/kg) of a compound described herein in 20 mM Tris-HCl Tris Buffer (pH 7 or 8) at a volume of 0.05 or 0.06 mL/animal. Blood was collected at 6, 12, 24, 48, 72, 96, 120 and 168 hours postdose for pharmacokinetic characterization (101).

in vivo [4] = settings: male, CD-1, mouse, sc, 350 nmol/kg
Method: as §1, §3

in vivo [5] = settings: male, Sprague Dawley, rat, sc; for half-life: T1/2
Method: as §1, §2

CC[C@H](C)[C@H](NC(C)=O)C(=O)N[C@H](C(=O)N[C@@H](CC(C)C)C(=O)N[C@@H](CO)C(=O)N[C@@H](CC(C)C)C(=O)N[C@@H](CC(=O)O)C(=O)N[C@H](C(=O)N1CCC[C@H]1C(=O)N[C@H](C(=O)NCC(=O)N[C@@H](CC(C)C)C(=O)N[C@@H](CC(C)C)C(=O)N[C@@H](CCC(N)=O)C(=O)N[C@H](C(=O)N[C@@H](CC(C)C)C(=O)N[C@@H](CC(C)C)C(=O)N[C@@H](CCC(=O)O)C(=O)N[C@@H](CCC(N)=O)C(=O)N[C@@H](CCC(=O)O)C(=O)N[C@@H](CCCCN)C(=O)N[C@@H](CCC(N)=O)C(=O)N[C@@H](CCC(=O)O)C(=O)N[C@@H](CCCCN)C(=O)N[C@@H](CCC(=O)O)C(=O)N[C@@H](CCCCN)C(=O)N[C@@H](CCC(N)=O)C(=O)N[C@@H](CCC(N)=O)C(=O)N[C@@H](C)C(=O)N[C@@H](CCCCNC(=O)COCCOCCNC(=O)COCCOCCNC(=O)CC[C@H](NC(=O)CC[C@H](NC(=O)CCCCCCCCCCCCCCCCCCC(=O)O)C(=O)O)C(=O)O)C(=O)N[C@H](C(=O)N[C@@H](CC(N)=O)C(=O)N[C@@H](C)C(=O)N[C@@H](CCC(N)=O)C(=O)N[C@H](C(=O)N[C@@H](CC(C)C)C(=O)N[C@@H](C)C(=O)N[C@@H](CCC(N)=O)C(=O)N[C@H](C(N)=O)C(C)C)[C@@H](C)CC)[C@@H](C)O)[C@@H](C)CC)[C@@H](C)CC)C(C)C)C(C)C [Example 2] (Ac-IVLSLDVPIGLLQILLEQEKQEKEKQQAK([AEEA-AEEA-γGlu-γGlu-C20 diacid])TNAQILAQV-NH2)
CL/F ([1]; CL/F): 0.00683 mL/min/kg | half-life ([1]; T1/2): 97 h | CL/F ([2]; CL/F): 0.0783 mL/min/kg | half-life ([2]; T1/2): 34 h | CL/F [3]: 0.138 mL/min/kg | half-life [3]: 20 h

CC[C@H](C)[C@H](NC)C(=O)N[C@H](C(=O)N[C@@H](CC(C)C)C(=O)N[C@@H](CO)C(=O)N[C@@H](CC(C)C)C(=O)N[C@@H](CC(=O)O)C(=O)N[C@H](C(=O)N1CCC[C@H]1C(=O)N[C@H](C(=O)NCC(=O)N[C@@H](CC(C)C)C(=O)N[C@@H](CC(C)C)C(=O)N[C@@H](CCC(N)=O)C(=O)N[C@H](C(=O)N[C@@H](CC(C)C)C(=O)N[C@@H](CC(C)C)C(=O)N[C@@H](CCC(=O)O)C(=O)N[C@@H](CCC(N)=O)C(=O)N[C@@H](CCC(=O)O)C(=O)N[C@@H](CCCCN)C(=O)N[C@@H](CCC(N)=O)C(=O)N[C@@H](CCC(=O)O)C(=O)N[C@@H](CCCCN)C(=O)N[C@@H](CCC(=O)O)C(=O)N[C@@H](CCCCN)C(=O)N[C@@H](CCC(N)=O)C(=O)N[C@@H](CCC(N)=O)C(=O)N[C@@H](C)C(=O)N[C@@H](CCCCNC(=O)COCCOCCNC(=O)COCCOCCNC(=O)CC[C@H](NC(=O)CC[C@H](NC(=O)CCCCCCCCCCCCCCCCCCC(=O)O)C(=O)O)C(=O)O)C(=O)N[C@H](C(=O)N[C@@H](CC(N)=O)C(=O)N[C@@H](C)C(=O)N[C@@H](CCC(N)=O)C(=O)N[C@H](C(=O)N[C@@H](CC(C)C)C(=O)N[C@@H](C)C(=O)N[C@@H](CCC(N)=O)C(=O)N[C@H](C(N)=O)C(C)C)[C@@H](C)CC)[C@@H](C)O)[C@@H](C)CC)[C@@H](C)CC)C(C)C)C(C)C [Example 4] (H-[NMeI]VLSLDVPIGLLQILLEQEKQEKEKQQAK([AEEA-AEEA-γGlu-γGlu-C20 diacid])TNAQILAQV-NH2)
CL/F (in vivo [4]): 0.113 mL/min/kg | half-life (in vivo [4]): 18 h | CL/F (in vivo [5]; 50 nmol/kg): 0.107 mL/min/kg | half-life (in vivo [5]; 50 nmol/kg): 19 h | CL/F (in vivo [5]; 150 nmol/kg): 0.113 mL/min/kg | half-life (in vivo [5]; 150 nmol/kg): 21 h
